Earlier results, collected in US7476499B2 (priority 2006, dated 2009).

Test system: poliovirus virions

Cc1cc(CCCCCCCOc2ccc(C3=NCCO3)cc2)on1 [WIN-51711, Disoxaril]
mode of action on poliovirus: prevents the uncoating of the viral genome after viral cell entry
